Experimental data taken from ChEMBL document CHEMBL1201862, “PubChem BioAssay data set” (2004).
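Each compound was tested at five concentrations against cells in 96-well plates for 48 hours. Here, GI50 denotes the concentration required for 50% inhibition of growth.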 Calls of active or inactive are those of the source. No stated cut-off is given here; in the data, active = GI50 up to about 1.1 µM and inactive = higher.

Tests used:
Experiment in all cases: DTP human tumour cell line panel, 48 h
UO-31 = system: UO-31
SK-MEL-2 = system: SK-MEL-2
A549 = system: A549
HCT-15 = system: HCT-15
SK-MEL-5 = system: SK-MEL-5
KM12 = system: KM12
COLO 205 = system: COLO 205
SW-620 = system: SW-620
DMS-273 = system: DMS-273
LXFL 529 = system: LXFL 529
SF-539 = system: SF-539
UACC-257 = system: UACC-257
SN12C = system: SN12C
SNB-78 = system: SNB-78
HL-60 = system: HL-60
SK-MEL-28 = system: SK-MEL-28
HCC 2998 = system: HCC 2998
RXF 393 = system: RXF 393
ACHN = system: ACHN
MOLT-4 = system: MOLT-4
SNB-19 = system: SNB-19
SF-268 = system: SF-268
NCI-H460 = system: NCI-H460
Malme-3M = system: Malme-3M
DMS-114 = system: DMS-114
OVCAR-5 = system: OVCAR-5
SNB-75 = system: SNB-75
OVCAR-8 = system: OVCAR-8
RPMI-8226 = system: RPMI-8226
RXF 631 = system: RXF 631
SR = system: SR
TK-10 = system: TK-10
LOX IMVI = system: LOX IMVI
HCT-116 = system: HCT-116
DLD-1 = system: DLD-1
SK-OV-3 = system: SK-OV-3
SF-295 = system: SF-295
K562 = system: K562
NCI-H23 = system: NCI-H23
HOP-18 = system: HOP-18
IGROV-1 = system: IGROV-1
U-251 = system: U-251
XF498 = system: XF498
EKVX = system: EKVX
M19-MEL = system: M19-MEL
OVCAR-4 = system: OVCAR-4
CAKI-1 = system: CAKI-1
CCRF-CEM = system: CCRF-CEM
HOP-92 = system: HOP-92
NCI-H226 = system: NCI-H226
M14 = system: M14
NCI-H522 = system: NCI-H522
HT-29 = system: HT-29
UACC-62 = system: UACC-62
HOP-62 = system: HOP-62
OVCAR-3 = system: OVCAR-3
786-0 = system: 786-0
KM-20L2 = system: KM-20L2

O=C=C=P(c1ccccc1)(c1ccccc1)c1ccccc1
GI50 (UO-31): > 100 µM (inactive) | GI50 (SK-MEL-2): 49.5 µM (inactive) | GI50 (A549): 40.6 µM (inactive) | GI50 (HCT-15): > 100 µM | GI50 (SK-MEL-5): 21.5 µM (inactive) | GI50 (KM12): 48.9 µM (inactive) | GI50 (COLO 205): 23.7 µM (inactive) | GI50 (SW-620): > 100 µM (inactive) | GI50 (DMS-273): 36.9 µM (inactive) | GI50 (LXFL 529): 35 µM (inactive) | GI50 (SF-539): > 100 µM (inactive) | GI50 (UACC-257): 27.8 µM (inactive) | GI50 (SN12C): > 100 µM (inactive) | GI50 (SNB-78): 39.7 µM (inactive) | GI50 (HL-60): 11.1 µM (inactive) | GI50 (SK-MEL-28): > 100 µM (inactive) | GI50 (HCC 2998): 61.5 µM (inactive) | GI50 (RXF 393): 92.5 µM (inactive) | GI50 (ACHN): > 100 µM (inactive) | GI50 (MOLT-4): 55.8 µM (inactive) | GI50 (SNB-19): > 100 µM (inactive) | GI50 (SF-268): 69.2 µM (inactive) | GI50 (NCI-H460): 86.9 µM (inactive) | GI50 (Malme-3M): 30.6 µM (inactive) | GI50 (DMS-114): 22.8 µM (inactive) | GI50 (OVCAR-5): 28.5 µM (inactive) | GI50 (SNB-75): 23.5 µM (inactive) | GI50 (OVCAR-8): 72.6 µM (inactive) | GI50 (RPMI-8226): 27.3 µM (inactive) | GI50 (RXF 631): 62.1 µM (inactive) | GI50 (SR): 86.7 µM (inactive) | GI50 (TK-10): 3.46 µM (inactive) | GI50 (LOX IMVI): 40.1 µM (inactive) | GI50 (HCT-116): 34.4 µM (inactive) | GI50 (DLD-1): > 100 µM (inactive) | GI50 (SK-OV-3): 48.3 µM (inactive) | GI50 (SF-295): > 100 µM (inactive) | GI50 (K562): 27 µM (inactive) | GI50 (NCI-H23): 31.3 µM (inactive) | GI50 (HOP-18): 21.6 µM (inactive) | GI50 (IGROV-1): 41.9 µM (inactive) | GI50 (U-251): 72.1 µM (inactive) | GI50 (XF498): 29 µM (inactive) | GI50 (EKVX): 46.7 µM (inactive) | GI50 (M19-MEL): 27.1 µM (inactive) | GI50 (OVCAR-4): 61.2 µM (inactive) | GI50 (CAKI-1): 59.4 µM (inactive) | GI50 (CCRF-CEM): 76 µM (inactive) | GI50 (HOP-92): 16.1 µM (inactive) | GI50 (NCI-H226): 45.6 µM (inactive) | GI50 (M14): 80.5 µM (inactive)

COC(=O)C1C(C)N1C (stereo not given)
GI50 (A549): > 100 µM (inactive) | GI50 (HCT-15): > 100 µM | GI50 (SK-MEL-5): > 100 µM (inactive) | GI50 (KM12): > 100 µM (inactive) | GI50 (COLO 205): > 100 µM (inactive) | GI50 (SW-620): > 100 µM (inactive) | GI50 (DMS-273): > 100 µM (inactive) | GI50 (LXFL 529): > 100 µM (inactive) | GI50 (SF-539): > 100 µM (inactive) | GI50 (UACC-257): > 100 µM (inactive) | GI50 (SN12C): > 100 µM (inactive) | GI50 (SNB-78): > 100 µM (inactive) | GI50 (HL-60): > 100 µM (inactive) | GI50 (SK-MEL-28): > 100 µM (inactive) | GI50 (HCC 2998): > 100 µM (inactive) | GI50 (NCI-H522): > 100 µM (inactive) | GI50 (RXF 393): > 100 µM (inactive) | GI50 (MOLT-4): > 100 µM (inactive) | GI50 (SNB-19): > 100 µM (inactive) | GI50 (NCI-H460): > 100 µM (inactive) | GI50 (HT-29): > 100 µM (inactive) | GI50 (DMS-114): > 100 µM (inactive) | GI50 (SNB-75): > 100 µM (inactive) | GI50 (OVCAR-8): > 100 µM (inactive) | GI50 (RPMI-8226): > 100 µM (inactive) | GI50 (RXF 631): > 100 µM (inactive) | GI50 (TK-10): > 100 µM (inactive) | GI50 (LOX IMVI): > 100 µM (inactive) | GI50 (DLD-1): > 100 µM (inactive) | GI50 (SK-OV-3): > 100 µM (inactive) | GI50 (UACC-62): > 100 µM (inactive) | GI50 (K562): > 100 µM (inactive) | GI50 (NCI-H23): > 100 µM (inactive) | GI50 (IGROV-1): > 100 µM (inactive) | GI50 (U-251): > 100 µM (inactive) | GI50 (XF498): 64.3 µM (inactive) | GI50 (EKVX): > 100 µM (inactive) | GI50 (M19-MEL): > 100 µM (inactive) | GI50 (HOP-62): > 100 µM (inactive) | GI50 (OVCAR-4): > 100 µM (inactive) | GI50 (CCRF-CEM): > 100 µM (inactive) | GI50 (HOP-92): > 100 µM (inactive) | GI50 (NCI-H226): > 100 µM (inactive) | GI50 (OVCAR-3): > 100 µM (inactive) | GI50 (M14): > 100 µM (inactive)

Cc1cc2c(=O)cc(-c3ccc(Cl)cc3)oc2c(C(=O)O)c1C
GI50 (UO-31): > 100 µM (inactive) | GI50 (SK-MEL-2): > 100 µM (inactive) | GI50 (A549): > 100 µM (inactive) | GI50 (HCT-15): > 100 µM | GI50 (SK-MEL-5): > 100 µM (inactive) | GI50 (KM12): > 100 µM (inactive) | GI50 (COLO 205): > 100 µM (inactive) | GI50 (SW-620): > 100 µM (inactive) | GI50 (DMS-273): > 100 µM (inactive) | GI50 (LXFL 529): > 100 µM (inactive) | GI50 (SF-539): > 100 µM (inactive) | GI50 (786-0): > 100 µM (inactive) | GI50 (UACC-257): > 100 µM (inactive) | GI50 (SN12C): > 100 µM (inactive) | GI50 (SNB-78): > 100 µM (inactive) | GI50 (SK-MEL-28): > 100 µM (inactive) | GI50 (NCI-H522): 29.5 µM (inactive) | GI50 (KM-20L2): > 100 µM (inactive) | GI50 (RXF 393): > 100 µM (inactive) | GI50 (ACHN): > 100 µM (inactive) | GI50 (MOLT-4): > 100 µM (inactive) | GI50 (SNB-19): > 100 µM (inactive) | GI50 (SF-268): > 100 µM (inactive) | GI50 (NCI-H460): > 100 µM (inactive) | GI50 (Malme-3M): > 100 µM (inactive) | GI50 (HT-29): > 100 µM (inactive) | GI50 (DMS-114): > 100 µM (inactive) | GI50 (OVCAR-5): > 100 µM (inactive) | GI50 (SNB-75): > 100 µM (inactive) | GI50 (OVCAR-8): > 100 µM (inactive) | GI50 (RPMI-8226): > 100 µM (inactive) | GI50 (RXF 631): > 100 µM (inactive) | GI50 (TK-10): > 100 µM (inactive) | GI50 (LOX IMVI): > 100 µM (inactive) | GI50 (HCT-116): > 100 µM (inactive) | GI50 (DLD-1): > 100 µM (inactive) | GI50 (SK-OV-3): > 100 µM (inactive) | GI50 (UACC-62): > 100 µM (inactive) | GI50 (SF-295): > 100 µM (inactive) | GI50 (K562): > 100 µM (inactive) | GI50 (NCI-H23): > 100 µM (inactive) | GI50 (HOP-18): > 100 µM (inactive) | GI50 (IGROV-1): > 100 µM (inactive) | GI50 (U-251): > 100 µM (inactive) | GI50 (XF498): > 100 µM (inactive) | GI50 (EKVX): > 100 µM (inactive) | GI50 (M19-MEL): > 100 µM (inactive) | GI50 (OVCAR-4): > 100 µM (inactive) | GI50 (CAKI-1): > 100 µM (inactive) | GI50 (CCRF-CEM): > 100 µM (inactive) | GI50 (NCI-H226): > 100 µM (inactive) | GI50 (OVCAR-3): > 100 µM (inactive) | GI50 (M14): > 100 µM (inactive)

c1ccc2c(CN3CCC(C4CCN(Cc5cccc6ccccc56)CC4)CC3)cccc2c1
GI50 (SK-MEL-2): 6.21 µM (inactive) | GI50 (A549): 38.3 µM (inactive) | GI50 (SK-MEL-5): 4.22 µM (inactive) | GI50 (COLO 205): 1.72 µM (inactive) | GI50 (DMS-273): 6.73 µM (inactive) | GI50 (LXFL 529): 5.74 µM (inactive) | GI50 (786-0): 16 µM (inactive) | GI50 (UACC-257): 2.1 µM (inactive) | GI50 (SN12C): > 63 µM (inactive) | GI50 (SNB-78): 23.7 µM (inactive) | GI50 (HL-60): 1.98 µM (inactive) | GI50 (HCC 2998): 1.09 µM (active) | GI50 (NCI-H522): 12.9 µM (inactive) | GI50 (KM-20L2): 2.81 µM (inactive) | GI50 (RXF 393): 11.9 µM (inactive) | GI50 (ACHN): 36.1 µM (inactive) | GI50 (MOLT-4): 5.7 µM (inactive) | GI50 (NCI-H460): 19 µM (inactive) | GI50 (Malme-3M): 2.4 µM (inactive) | GI50 (HT-29): 3.11 µM (inactive) | GI50 (DMS-114): 2.64 µM (inactive) | GI50 (RPMI-8226): 3.66 µM (inactive) | GI50 (RXF 631): 12.2 µM (inactive) | GI50 (TK-10): 17.7 µM (inactive) | GI50 (DLD-1): 2.09 µM (inactive) | GI50 (SK-OV-3): 21.1 µM (inactive) | GI50 (UACC-62): 5.64 µM (inactive) | GI50 (SF-295): 7.64 µM (inactive) | GI50 (K562): 1.53 µM (inactive) | GI50 (HOP-18): 40.1 µM (inactive) | GI50 (U-251): 11.3 µM (inactive) | GI50 (XF498): 4.75 µM (inactive) | GI50 (M19-MEL): 6.64 µM (inactive) | GI50 (HOP-62): 14.7 µM (inactive) | GI50 (OVCAR-3): 39.7 µM (inactive) | GI50 (M14): 1.92 µM (inactive)
